According to paper PMC10484922, “Discovery of a selective and biologically active low-molecular weight antagonist of human interleukin-1β” (Nature Communications, 2023):
Values joined by “and” are separate entries in the source; they are usually repeats but may differ in a detail not shown here. Equal values may be shown once. “Also recorded” adds a separate entry of the source. Read-outs that look alike come from different tables or passages of the source.

Key:
[1] = system: HEK-Blue IL-1β cells stimulated with hIL-1β; test: HEK293 reporter gene assay, hIL-1β as trigger; format: cell-based, human; parameters: RGA HEK293, average / RGA HEK293, curve fit: unit not given here; details: for RGA HEK293, average / RGA HEK293, curve fit: per experiment
Description: (§1) We used HEK-Blue™ IL-1β cells that respond specifically to IL-1 (# hkb-il1b, InvivoGen). These cells can detect IL-1α and IL-1β, as these cytokines bind to the same receptor, IL-1R1. They express a Seap reporter gene under the control of the IFN-β minimal promoter fused to five NF-kappaB and five AP-1 binding sites. Thirty microliters (300,000 cells/ml) per well of a 384-well plate were plated overnight. Cells were then stimulated with graded concentrations of cytokines (hIL-1α or hIL-1β) in the absence or presence of canakinumab (Ilaris®, ILARI LYVI 150MG 22GLW.012, batch U003 0409)[22], anakinra (Kineret®, 100 mg/0.67 ml injectable solution, Sobi)[23], or compound (S)-2 (compounds were pre-mixed for 1 h with the cytokine prior to addition to cells) and further incubated overnight before assessment of Seap activity.

[2] = system: normal human dermal fibroblasts stimulated with hIL-1α; test: Human fibroblast IL-6 release assay, hIL-1α stimulated; format: cell-based; parameters: IL-1alpha (mean, SD): mean readout (IL-6 release): unit not given here; details: for Mean OD (OD 450nm) / IL-1alpha (mean, SD): mean readout (IL-6 release): Figure 3c; for Mean OD (OD 450nm): compound 500 nM; for IL-1alpha (mean, SD): mean readout (IL-6 release): compound @ 50uM
Description: as §1
Normal human dermal fibroblasts (NHDF) from Clonetics^TM (LONZA, Cat # CC-2509 (NHDF-Neo), Lot # 0000234242, used at passage ≤14) were seeded at a density of 5000 cells/well in 100 μL of culture medium using 96-well plates (flat bottom, TCT). Treatment with cytokines/compounds was performed as described above. Cells were incubated for another 6 h and were subsequently spun down (320g/3 min). IL-6 was measured in the supernatant by ELISA (BioLegend, # 430503) or HTRF (Cisbio, #62HIL06PEH).

[3] = system: CHO IL-36R reporter cell line stimulated with IL-36γ; test: NanoBiT reporter assay, CHO IL-36R cells, IL-36γ driven; format: cell-based; parameters: average: scale not given here
Description: Reporter cell system for NanoBiT assay
CHO IL-36R or CHO IL-1R1 reporter cell lines, prepared internally (Klemens Ka u p ma n n ), based on tagged IL-1RAcP and Myd88 proteins using the NanoBiT complementation system, were seeded at a densi ty of 10’000 cells/well in 30 µL of OptiMEM + 0.1 % FCS medium using 384-well plates (white, TCT), for 24 hours.
Before the treatment, the medium was removed, 20 µL of NanoGlo substrate, (#N2012, Pr o me g a ) were added to the wells. Following substrate addi ti on, 240 nL of compound were added to the wells using an ECH O dispenser device. Then, 3.76 µL of the ligand IL-36g (Novartis) at 200 ng/mL end concentration or recombinant IL-1b (Novartis) at 500 pg/mL end concentration were added to the mix. Luminescence was measured at 405 nm after 30 min incubation (Pherastar reader). […]

Cc1ccc2c(c1)NC(=O)[C@@]2(c1cn[nH]c1)c1cc(-c2ccc(C(=O)O)cc2C(=O)O)ccc1O [Compound (S)-2]
reporter activity induced by hIL-1β [1]: efficiently inhibited the reporter activity induced by hIL-1β
RGA HEK293, average ([1]; 3.125 uM): 29.4705 and 28.9635 and 25.1151 and 32.9049 and 27.4138 and 39.0499 and 38.2996 and 37.0235
RGA HEK293, curve fit ([1]; 3.125 uM): 30.4654 and 27.1823 and 20.8299 and 28.629 and 26.4966 and 33.5898 and 33.5814 and 32.8647
RGA HEK293, average ([1]; 6.25 uM): 54.0943 and 50.2167 and 45.7315 and 52.6564 and 46.7509 and 54.9517 and 53.8737 and 52.9197
RGA HEK293, curve fit ([1]; 6.25 uM): 53.4932 and 49.1303 and 45.443 and 53.6627 and 46.4685 and 55.6955 and 53.7771 and 53.2389
RGA HEK293, average ([1]; 12.5 uM): 72.3524 and 70.9823 and 68.0128 and 77.9349 and 67.4822 and 74.7182 and 71.0369 and 70.438
RGA HEK293, curve fit ([1]; 12.5 uM): 72.9412 and 71.3657 and 68.2903 and 76.9195 and 67.593 and 75.1363 and 72.2128 and 71.5012
RGA HEK293, average ([1]; 25 uM): 87.2975 and 85.2654 and 82.5363 and 87.9606 and 82.8729 and 86.3527 and 84.3067 and 83.9822
RGA HEK293, curve fit ([1]; 25 uM): 85.8483 and 86.5666 and 83.9461 and 90.5811 and 83.387 and 87.7879 and 85.1743 and 84.4134
RGA HEK293, average ([1]; 50 uM): 94.5457 and 94.2398 and 91.9589 and 95.03 and 93.0282 and 93.3172 and 89.9086 and 89.6999
RGA HEK293, curve fit ([1]; 50 uM): 93.0784 and 94.3616 and 92.5512 and 96.5403 and 92.3805 and 94.467 and 92.6851 and 92.0672
RGA HEK293, average ([1]; 100 uM): 97.772 and 97.6887 and 95.147 and 97.9006 and 96.9482 and 94.6055 and 95.59 and 95.4988
RGA HEK293, curve fit ([1]; 100 uM): 96.7406 and 97.7627 and 96.7045 and 98.7877 and 96.7132 and 97.5984 and 96.5496 and 96.1302
IC50 ([1]; Homo sapiens, hIL-1β, read-out: RGA HEK293 IC50): 5.3 ± 0.3 µM
IC50 ([1]; Homo sapiens, source data, read-out: RGA HEK293 IC50, individual experiments): 4.15 µM
IC50 ([1]; source data, read-out: RGA HEK293 IC50, individual experiments): 6.4 µM and 5.37 µM and 5.67 µM and 6.98 µM and 4.84 µM and 5.05 µM and 4.72 µM
effect on hIL-1α driven IL-6 release [2]: had no effect on hIL-1α driven IL-6 release
Mean OD (OD 450nm) ([2]; hu IL-1A 0 pg/mL): 0.031
Mean OD (OD 450nm) ([2]; hu IL-1A 40 pg/mL): 0.372
Mean OD (OD 450nm) ([2]; hu IL-1A 80 pg/mL): 0.573
Mean OD (OD 450nm) ([2]; hu IL-1A 120 pg/mL): 0.693
Mean OD (OD 450nm) ([2]; hu IL-1A 160 pg/mL): 0.736
Mean OD (OD 450nm) ([2]; hu IL-1A 200 pg/mL): 0.751
IL-1alpha (mean, SD): mean readout (IL-6 release) ([2]; hu IL-1a 0 pg/mL): 0
IL-1alpha (mean, SD): mean readout (IL-6 release) ([2]; hu IL-1a 40 pg/mL): 1994.8
IL-1alpha (mean, SD): mean readout (IL-6 release) ([2]; hu IL-1a 80 pg/mL): 3486.9
IL-1alpha (mean, SD): mean readout (IL-6 release) ([2]; hu IL-1a 120 pg/mL): 4374.4
IL-1alpha (mean, SD): mean readout (IL-6 release) ([2]; hu IL-1a 160 pg/mL): 4691.2
IL-1alpha (mean, SD): mean readout (IL-6 release) ([2]; hu IL-1a 200 pg/mL): 4802.2
IL-36γ-driven NanoBiT reporter activity [3]: without effect on IL-36g-driven activity; also recorded: no inhibitory activity
average ([3]; IL-36, EXP1, conc 0.00610352 uM): -8.032
average ([3]; IL-36, EXP1, conc 0.012207 uM): -2.7959
average ([3]; IL-36, EXP1, conc 0.0244141 uM): -4.066
average ([3]; IL-36, EXP1, conc 0.0488281 uM): -1.337
average ([3]; IL-36, EXP1, conc 0.0976562 uM): -10.0933
average ([3]; IL-36, EXP1, conc 0.195312 uM): -6.363
average ([3]; IL-36, EXP1, conc 0.390625 uM): -11.0347
average ([3]; IL-36, EXP1, conc 0.78125 uM): -4.52
average ([3]; IL-36, EXP1, conc 1.5625 uM): -4.793
average ([3]; IL-36, EXP1, conc 3.125 uM): -8.376
average ([3]; IL-36, EXP1, conc 6.25 uM): -1.775
average ([3]; IL-36, EXP1, conc 12.5 uM): -2.393
average ([3]; IL-36, EXP1, conc 25 uM): -11.2956
average ([3]; IL-36, EXP1, conc 50 uM): -8.608
average ([3]; IL-36, EXP1, conc 100 uM): 2.894
average ([3]; IL-36, EXP2, conc 0.00610352 uM): -0.8565
average ([3]; IL-36, EXP2, conc 0.012207 uM): -0.8771
average ([3]; IL-36, EXP2, conc 0.0244141 uM): 16.4182
average ([3]; IL-36, EXP2, conc 0.0488281 uM): -7.751
average ([3]; IL-36, EXP2, conc 0.0976562 uM): 10.3597
average ([3]; IL-36, EXP2, conc 0.195312 uM): 5.839
average ([3]; IL-36, EXP2, conc 0.390625 uM): 4.392
average ([3]; IL-36, EXP2, conc 0.78125 uM): 8.396
average ([3]; IL-36, EXP2, conc 1.5625 uM): 12.4114
average ([3]; IL-36, EXP2, conc 3.125 uM): 6.063
average ([3]; IL-36, EXP2, conc 6.25 uM): 0.8781
average ([3]; IL-36, EXP2, conc 12.5 uM): 10.8339
average ([3]; IL-36, EXP2, conc 25 uM): 7.445
average ([3]; IL-36, EXP2, conc 50 uM): 10.4408
average ([3]; IL-36, EXP2, conc 100 uM): 12.6091
average ([3]; IL-36, EXP3, conc 0.00610352 uM): 2.096
average ([3]; IL-36, EXP3, conc 0.012207 uM): -6.441
average ([3]; IL-36, EXP3, conc 0.0244141 uM): 4.8088
average ([3]; IL-36, EXP3, conc 0.0488281 uM): -5.951
average ([3]; IL-36, EXP3, conc 0.0976562 uM): -4.784
average ([3]; IL-36, EXP3, conc 0.195312 uM): -4.89
average ([3]; IL-36, EXP3, conc 0.390625 uM): -47.4888
average ([3]; IL-36, EXP3, conc 0.78125 uM): -7.151
average ([3]; IL-36, EXP3, conc 1.5625 uM): -6.215
average ([3]; IL-36, EXP3, conc 3.125 uM): -8.634
average ([3]; IL-36, EXP3, conc 6.25 uM): -10.5486
average ([3]; IL-36, EXP3, conc 12.5 uM): -5.26
average ([3]; IL-36, EXP3, conc 25 uM): -17.1151
average ([3]; IL-36, EXP3, conc 50 uM): -4.192
average ([3]; IL-36, EXP3, conc 100 uM): -4.987
